ChEMBL document CHEMBL3045255, “Novel quinolyl-thienyl chalcones and their 2-pyrazoline derivatives with diverse substitution pattern as antileishmanial agents against Leishmania major” (Med Chem Res, 2012)
In brackets after ≈: the same amount, converted by molar mass.

test system: Leishmania major; assay: Antileishmanial activity against promastigotes form of Leishmania major after 72 hr by cell counting using neubaur chamber; type: functional, organism-based

IC50 [µg/mL] | Structure (SMILES)
0.88 (≈ 2.8 µM) | Cc1ccc2cc(/C=C/C(=O)c3ccsc3)c(Cl)nc2c1
0.92 (≈ 2.81 µM) | Cc1ccc2cc(/C=C/C(=O)c3sccc3C)c(Cl)nc2c1
0.83 (≈ 2.53 µM) | Cc1csc(C(=O)/C=C/c2cc3ccc(C)cc3nc2Cl)c1
0.74 (≈ 2.26 µM) | Cc1ccc2cc(/C=C/C(=O)c3ccc(C)s3)c(Cl)nc2c1
0.62 (≈ 1.81 µM) | Cc1ccc2cc(/C=C/C(=O)c3cc(C)sc3C)c(Cl)nc2c1
0.59 (≈ 1.69 µM) | Cc1ccc2cc(/C=C/C(=O)c3sccc3Cl)c(Cl)nc2c1
0.81 (≈ 2.33 µM) | Cc1ccc2cc(/C=C/C(=O)c3ccc(Cl)s3)c(Cl)nc2c1
0.78 (≈ 2.04 µM) | Cc1ccc2cc(/C=C/C(=O)c3cc(Cl)sc3Cl)c(Cl)nc2c1
0.71 (≈ 1.81 µM) | Cc1ccc2cc(/C=C/C(=O)c3sccc3Br)c(Cl)nc2c1
0.91 (≈ 2.32 µM) | Cc1ccc2cc(/C=C/C(=O)c3ccc(Br)s3)c(Cl)nc2c1
0.84 (≈ 1.91 µM) | Cc1ccc2cc(/C=C/C(=O)c3ccc(I)s3)c(Cl)nc2c1
0.61 (≈ 1.94 µM) | Cc1cccc2cc(/C=C/C(=O)c3ccsc3)c(Cl)nc12
0.94 (≈ 2.87 µM) | Cc1ccsc1C(=O)/C=C/c1cc2cccc(C)c2nc1Cl
0.59 (≈ 1.8 µM) | Cc1csc(C(=O)/C=C/c2cc3cccc(C)c3nc2Cl)c1
0.61 (≈ 1.86 µM) | Cc1ccc(C(=O)/C=C/c2cc3cccc(C)c3nc2Cl)s1
0.73 (≈ 2.14 µM) | Cc1cc(C(=O)/C=C/c2cc3cccc(C)c3nc2Cl)c(C)s1
0.78 (≈ 2.24 µM) | Cc1cccc2cc(/C=C/C(=O)c3sccc3Cl)c(Cl)nc12
0.65 (≈ 1.87 µM) | Cc1cccc2cc(/C=C/C(=O)c3ccc(Cl)s3)c(Cl)nc12
0.85 (≈ 2.22 µM) | Cc1cccc2cc(/C=C/C(=O)c3cc(Cl)sc3Cl)c(Cl)nc12
0.93 (≈ 2.37 µM) | Cc1cccc2cc(/C=C/C(=O)c3sccc3Br)c(Cl)nc12
0.78 (≈ 1.99 µM) | Cc1cccc2cc(/C=C/C(=O)c3ccc(Br)s3)c(Cl)nc12

IC50 [µg/mL] | Structure (SMILES)
0.67 (≈ 1.52 µM) | Cc1cccc2cc(/C=C/C(=O)c3ccc(I)s3)c(Cl)nc12
0.93 (≈ 2.29 µM) | Cc1ccc2cc(C3CC(c4ccc(Br)s4)=NN3)c(Cl)nc2c1 (centres undefined)
0.88 (≈ 1.94 µM) | Cc1ccc2cc(C3CC(c4ccc(I)s4)=NN3)c(Cl)nc2c1 (centres undefined)
0.78 (≈ 2.28 µM) | Cc1ccsc1C1=NNC(c2cc3cccc(C)c3nc2Cl)C1 (centres undefined)
0.74 (≈ 2.16 µM) | Cc1csc(C2=NNC(c3cc4cccc(C)c4nc3Cl)C2)c1 (centres undefined)
0.89 (≈ 2.6 µM) | Cc1ccc(C2=NNC(c3cc4cccc(C)c4nc3Cl)C2)s1 (centres undefined)
0.93 (≈ 2.61 µM) | Cc1cc(C2=NNC(c3cc4cccc(C)c4nc3Cl)C2)c(C)s1 (centres undefined)
0.84 (≈ 2.32 µM) | Cc1cccc2cc(C3CC(c4sccc4Cl)=NN3)c(Cl)nc12 (centres undefined)
0.75 (≈ 2.07 µM) | Cc1cccc2cc(C3CC(c4ccc(Cl)s4)=NN3)c(Cl)nc12 (centres undefined)
0.79 (≈ 1.99 µM) | Cc1cccc2cc(C3CC(c4cc(Cl)sc4Cl)=NN3)c(Cl)nc12 (centres undefined)
0.94 (≈ 2.31 µM) | Cc1cccc2cc(C3CC(c4sccc4Br)=NN3)c(Cl)nc12 (centres undefined)
0.93 (≈ 2.29 µM) | Cc1cccc2cc(C3CC(c4ccc(Br)s4)=NN3)c(Cl)nc12 (centres undefined)
0.77 (≈ 1.7 µM) | Cc1cccc2cc(C3CC(c4ccc(I)s4)=NN3)c(Cl)nc12 (centres undefined)
0.76 (≈ 2.22 µM) | Cc1ccc2cc(C3CC(c4sccc4C)=NN3)c(Cl)nc2c1 (centres undefined)
0.87 (≈ 2.54 µM) | Cc1csc(C2=NNC(c3cc4ccc(C)cc4nc3Cl)C2)c1 (centres undefined)
0.89 (≈ 2.6 µM) | Cc1ccc2cc(C3CC(c4ccc(C)s4)=NN3)c(Cl)nc2c1 (centres undefined)
0.76 (≈ 2.14 µM) | Cc1ccc2cc(C3CC(c4cc(C)sc4C)=NN3)c(Cl)nc2c1 (centres undefined)
0.78 (≈ 2.15 µM) | Cc1ccc2cc(C3CC(c4sccc4Cl)=NN3)c(Cl)nc2c1 (centres undefined)
0.83 (≈ 2.29 µM) | Cc1ccc2cc(C3CC(c4ccc(Cl)s4)=NN3)c(Cl)nc2c1 (centres undefined)
0.71 (≈ 1.79 µM) | Cc1ccc2cc(C3CC(c4cc(Cl)sc4Cl)=NN3)c(Cl)nc2c1 (centres undefined)
0.85 (≈ 2.09 µM) | Cc1ccc2cc(C3CC(c4sccc4Br)=NN3)c(Cl)nc2c1 (centres undefined)

Structure (SMILES) | IC50 [µg/mL]
Cc1cccc2cc(C3CC(c4ccsc4)=NN3)c(Cl)nc12 (centres undefined) | 0.67 (≈ 2.04 µM)
Cc1ccc2cc(C3CC(c4ccsc4)=NN3)c(Cl)nc2c1 (centres undefined) | 0.94 (≈ 2.87 µM)
